ChEMBL document CHEMBL1153358, “Amide analogs of antifungal dioxane-triazole derivatives: synthesis and in vitro activities” (Bioorg Med Chem Lett, 2009)
Converted amounts (≈) assume the structure as drawn.

Key:
Type in all cases: functional
[1] = test system: Aspergillus flavus; experiment: Antifungal activity against Aspergillus flavus SANK 18497
[2] = test system: Cryptococcus neoformans; experiment: Antifungal activity against Cryptococcus neoformans TIMM 1855
[3] = test system: Candida albicans; experiment: Antifungal activity against fluconazole-resistant Candida albicans TIMM3164
[4] = test system: Candida tropicalis; experiment: Antifungal activity against Candida tropicalis ATCC 750
[5] = test system: Candida albicans; experiment: Antifungal activity against Candida albicans SANK 51486
[6] = test system: Nakaseomyces glabratus; experiment: Antifungal activity against Candida glabrata ATCC 90030
[7] = test system: Aspergillus fumigatus; experiment: Antifungal activity against Aspergillus fumigatus SANK 10569
[8] = test system: Candida parapsilosis; experiment: Antifungal activity against Candida parapsilosis ATCC 90018; conditions: Lodderomyces parapsilosis
[9] = test system: Aspergillus fumigatus; experiment: Antifungal activity against Aspergillus fumigatus ATCC 26430
[10] = test system: Candida albicans; experiment: Antifungal activity against Candida albicans ATCC 24433
[11] = test system: Candida albicans; experiment: Antifungal activity against Candida albicans ATCC 64550
[12] = test system: Pichia kudriavzevii; experiment: Antifungal activity against Candida krusei ATCC 6258

SMILES | MIC [1] [µg/mL] | MIC [2] [µg/mL] | MIC [3] [µg/mL] | MIC [4] [µg/mL] | MIC [5] [µg/mL] | MIC [6] [µg/mL] | MIC [7] [µg/mL] | MIC [8] [µg/mL] | MIC [9] [µg/mL] | MIC [10] [µg/mL] | MIC [11] [µg/mL] | MIC [12] [µg/mL]
C[C@@H](S[C@H]1CO[C@H](c2ccc(C(=O)Nc3ccc(Cl)cc3)cc2)OC1)[C@](O)(Cn1cncn1)c1ccc(F)cc1F | 0.125 (≈ 0.208 µM) | 0.016 (≈ 0.0266 µM) | ≤ 0.008 | 0.016 (≈ 0.0266 µM) | ≤ 0.008 | > 4 | 0.063 (≈ 0.105 µM) | – | – | – | – | –
C[C@@H](S[C@H]1CO[C@H](/C=C/C(=O)c2ccc(F)cc2)OC1)[C@](O)(Cn1cncn1)c1ccc(F)cc1F.O=C(O)/C=C\C(=O)O | > 4 | 0.125 | 0.125 | 0.5 | ≤ 0.008 | 1 | 1 | – | – | – | – | –
C[C@@H](S[C@H]1CO[C@H](c2ccc(C(=O)Nc3ccc(O)cc3)cc2)OC1)[C@](O)(Cn1cncn1)c1ccc(F)cc1F | 1 (≈ 1.72 µM) | 0.25 (≈ 0.429 µM) | 0.063 (≈ 0.108 µM) | 0.25 (≈ 0.429 µM) | 0.016 (≈ 0.0275 µM) | > 4 | 0.5 (≈ 0.858 µM) | – | – | – | – | –
C[C@@H](S[C@H]1CO[C@H](c2ccc(C(=O)Nc3ccc(C#N)c(Cl)c3)cc2)OC1)[C@](O)(Cn1cncn1)c1ccc(F)cc1F | 0.25 (≈ 0.399 µM) | 0.031 (≈ 0.0495 µM) | 0.016 (≈ 0.0256 µM) | 0.063 (≈ 0.101 µM) | ≤ 0.008 | 1 (≈ 1.6 µM) | 0.125 (≈ 0.2 µM) | – | – | – | – | –
C[C@@H](S[C@H]1CO[C@H](c2ccc(C(=O)Nc3ccc(C#N)c(C#N)c3)cc2)OC1)[C@](O)(Cn1cncn1)c1ccc(F)cc1F | 0.5 (≈ 0.811 µM) | 0.063 (≈ 0.102 µM) | 0.016 (≈ 0.0259 µM) | 0.031 (≈ 0.0503 µM) | ≤ 0.008 | > 4 | 0.25 (≈ 0.405 µM) | – | – | – | – | –
C[C@@H](S[C@H]1CO[C@H](c2ccc(C(=O)Nc3ccc(C#N)cc3)cc2F)OC1)[C@](O)(Cn1cncn1)c1ccc(F)cc1F | 0.25 (≈ 0.41 µM) | 0.031 (≈ 0.0509 µM) | 0.031 (≈ 0.0509 µM) | ≤ 0.008 | ≤ 0.008 | 2 (≈ 3.28 µM) | 0.063 (≈ 0.103 µM) | – | – | – | – | –
CC(=O)c1ccc(NC(=O)c2ccc([C@H]3OC[C@H](S[C@H](C)[C@](O)(Cn4cncn4)c4ccc(F)cc4F)CO3)cc2)cc1 | 0.25 (≈ 0.411 µM) | 0.125 (≈ 0.205 µM) | 0.031 (≈ 0.0509 µM) | 0.125 (≈ 0.205 µM) | ≤ 0.008 | > 4 | 0.063 (≈ 0.104 µM) | – | – | – | – | –
C[C@@H](S[C@H]1CO[C@H](c2ccc(C(=O)Nc3ccc(Br)cc3)cc2)OC1)[C@](O)(Cn1cncn1)c1ccc(F)cc1F | 0.125 (≈ 0.194 µM) | 0.016 (≈ 0.0248 µM) | 0.016 (≈ 0.0248 µM) | ≤ 0.008 | ≤ 0.008 | > 4 | 0.063 (≈ 0.0976 µM) | – | – | – | – | –
C[C@@H](S[C@H]1CO[C@H](c2ccc(C(=O)Nc3ccc(OCC(F)(F)C(F)F)cc3)cc2)OC1)[C@](O)(Cn1cncn1)c1ccc(F)cc1F | 0.5 (≈ 0.718 µM) | 0.063 (≈ 0.0904 µM) | 0.031 (≈ 0.0445 µM) | 0.125 (≈ 0.179 µM) | 0.016 (≈ 0.023 µM) | > 4 | 0.125 (≈ 0.179 µM) | – | – | – | – | –
Cc1ccc(NC(=O)c2ccc([C@H]3OC[C@H](S[C@H](C)[C@](O)(Cn4cncn4)c4ccc(F)cc4F)CO3)cc2)cc1 | 0.25 (≈ 0.431 µM) | 0.031 (≈ 0.0534 µM) | 0.016 (≈ 0.0276 µM) | ≤ 0.008 | ≤ 0.008 | 2 (≈ 3.44 µM) | 0.063 (≈ 0.108 µM) | – | – | – | – | –
C[C@@H](S[C@H]1CO[C@H](c2ccc(C(=O)Nc3ccc(F)cc3)cc2)OC1)[C@](O)(Cn1cncn1)c1ccc(F)cc1F | 0.25 (≈ 0.428 µM) | 0.031 (≈ 0.053 µM) | 0.016 (≈ 0.0274 µM) | 0.016 (≈ 0.0274 µM) | ≤ 0.008 | 2 (≈ 3.42 µM) | 0.125 (≈ 0.214 µM) | – | – | – | – | –
C[C@@H](S[C@H]1CO[C@H](c2ccc(C(=O)N3CCN(c4ccccc4)CC3)cc2)OC1)[C@](O)(Cn1cncn1)c1ccc(F)cc1F | 2 (≈ 3.15 µM) | 0.016 (≈ 0.0252 µM) | 0.125 (≈ 0.197 µM) | 0.5 (≈ 0.786 µM) | 0.016 (≈ 0.0252 µM) | 2 (≈ 3.15 µM) | 1 (≈ 1.57 µM) | – | – | – | – | –
C[C@@H](S[C@H]1CO[C@H](c2ccc(C(=O)Nc3ccc(C#N)cc3F)cc2)OC1)[C@](O)(Cn1cncn1)c1ccc(F)cc1F | 0.125 (≈ 0.205 µM) | 0.063 (≈ 0.103 µM) | 0.016 (≈ 0.0262 µM) | 0.031 (≈ 0.0509 µM) | ≤ 0.008 | > 4 | 0.031 (≈ 0.0509 µM) | – | – | – | – | –
C[C@@H](S[C@H]1CO[C@H](/C=C/C(=O)Nc2ccc(F)cc2)OC1)[C@](O)(Cn1cncn1)c1ccc(F)cc1F | 4 (≈ 7.48 µM) | 0.125 (≈ 0.234 µM) | 0.125 (≈ 0.234 µM) | 0.125 (≈ 0.234 µM) | < 0.008 | 4 (≈ 7.48 µM) | 0.5 (≈ 0.935 µM) | – | – | – | – | –
C[C@@H](S[C@H]1CO[C@H](c2ccc(C(=O)Nc3ccncc3)cc2)OC1)[C@](O)(Cn1cncn1)c1ccc(F)cc1F | 0.25 (≈ 0.44 µM) | 0.125 (≈ 0.22 µM) | 0.031 (≈ 0.0546 µM) | 0.125 (≈ 0.22 µM) | ≤ 0.008 | > 4 | 0.25 (≈ 0.44 µM) | – | – | – | – | –
C[C@@H](S[C@H]1CO[C@H](c2ccc(C(=O)Nc3nccs3)cc2)OC1)[C@](O)(Cn1cncn1)c1ccc(F)cc1F | 0.5 (≈ 0.872 µM) | 0.125 (≈ 0.218 µM) | 0.031 (≈ 0.054 µM) | 0.125 (≈ 0.218 µM) | ≤ 0.008 | 2 (≈ 3.49 µM) | 0.063 (≈ 0.11 µM) | – | – | – | – | –
C[C@@H](S[C@H]1CO[C@H](c2ccc(C(=O)N3CCSCC3)cc2)OC1)[C@](O)(Cn1cncn1)c1ccc(F)cc1F | 4 (≈ 6.94 µM) | 0.031 (≈ 0.0538 µM) | 0.125 (≈ 0.217 µM) | 0.5 (≈ 0.867 µM) | 0.016 (≈ 0.0277 µM) | 4 (≈ 6.94 µM) | 0.5 (≈ 0.867 µM) | – | – | – | – | –
C[C@@H](S[C@H]1CO[C@H](/C=C/C=C/c2ccc(F)cc2)OC1)[C@](O)(Cn1cncn1)c1ccc(F)cc1F | 0.25 (≈ 0.483 µM) | 0.016 (≈ 0.0309 µM) | 0.063 (≈ 0.122 µM) | 0.25 (≈ 0.483 µM) | ≤ 0.008 | 1 (≈ 1.93 µM) | 0.063 (≈ 0.122 µM) | – | – | – | – | –
C[C@@H](S[C@H]1CO[C@H](c2ccc(C(=O)N3CCOCC3)cc2)OC1)[C@](O)(Cn1cncn1)c1ccc(F)cc1F | > 4 | 0.125 (≈ 0.223 µM) | 0.25 (≈ 0.446 µM) | 1 (≈ 1.78 µM) | 0.063 (≈ 0.112 µM) | > 4 | 4 (≈ 7.13 µM) | – | – | – | – | –
C[C@@H](S[C@H]1CO[C@H](c2ccc(C(=O)Nc3ccc(SC(F)(F)F)cc3)cc2)OC1)[C@](O)(Cn1cncn1)c1ccc(F)cc1F | 0.5 (≈ 0.75 µM) | 0.016 (≈ 0.024 µM) | 0.031 (≈ 0.0465 µM) | 0.031 (≈ 0.0465 µM) | ≤ 0.008 | 1 (≈ 1.5 µM) | 0.25 (≈ 0.375 µM) | – | – | – | – | –
C[C@@H](S[C@H]1CO[C@H](c2cccc(C(=O)Nc3ccc(C#N)cc3)c2)OC1)[C@](O)(Cn1cncn1)c1ccc(F)cc1F | > 4 | 1 (≈ 1.69 µM) | 0.25 (≈ 0.423 µM) | 1 (≈ 1.69 µM) | ≤ 0.008 | 2 (≈ 3.38 µM) | 2 (≈ 3.38 µM) | – | – | – | – | –
C[C@@H](S[C@H]1CO[C@H](c2ccc3cc(C(=O)Nc4ccc(C#N)cc4)ccc3c2)OC1)[C@](O)(Cn1cncn1)c1ccc(F)cc1F | 0.25 (≈ 0.39 µM) | 0.063 (≈ 0.0982 µM) | 0.031 (≈ 0.0483 µM) | 0.016 (≈ 0.0249 µM) | ≤ 0.008 | > 4 | 0.063 (≈ 0.0982 µM) | – | – | – | – | –
C[C@@H](S[C@H]1CO[C@H](/C=C/S(=O)(=O)c2ccc(F)cc2)OC1)[C@](O)(Cn1cncn1)c1ccc(F)cc1F.O=C(O)/C=C\C(=O)O | > 4 | 0.125 | 0.125 | 0.5 | ≤ 0.008 | 2 | 4 | – | – | – | – | –
OC(Cn1cncn1)(Cn1cncn1)c1ccc(F)cc1F [FLUCONAZOLE] | > 4 | > 4 | > 4 | 2 (≈ 6.53 µM) | 0.25 (≈ 0.816 µM) | > 4 | > 4 | 0.5 (≈ 1.63 µM) | > 4 | 0.5 (≈ 1.63 µM) | > 4 | > 4
